Reference: patent US11939314B2, “Quinolin-2-one derivatives” (MERCK PATENT GMBH, priority 2016, dated 2024)
Counter-ions that a name gives are not always drawn.

Legend:
[1] = biological target: T1, PDGFRalpha(V561D) (Homo sapiens, UniProt P16234, V561D); test: PDGFRalpha(V561D) assay; assay type: biochemical; conditions: recombinant human PDGFRalpha aa 550-end, 200 μM ATP, 1.4E-06 means 1.4×10^−6, read-out: Inhibition (IC50) of PDGFRα (V561D)
T1 construct: recombinant human PDGFRalpha, amino acids 550end containing the V561 D mutation; 6His (N)
T1 sequence (P16234 550-1089 V561D): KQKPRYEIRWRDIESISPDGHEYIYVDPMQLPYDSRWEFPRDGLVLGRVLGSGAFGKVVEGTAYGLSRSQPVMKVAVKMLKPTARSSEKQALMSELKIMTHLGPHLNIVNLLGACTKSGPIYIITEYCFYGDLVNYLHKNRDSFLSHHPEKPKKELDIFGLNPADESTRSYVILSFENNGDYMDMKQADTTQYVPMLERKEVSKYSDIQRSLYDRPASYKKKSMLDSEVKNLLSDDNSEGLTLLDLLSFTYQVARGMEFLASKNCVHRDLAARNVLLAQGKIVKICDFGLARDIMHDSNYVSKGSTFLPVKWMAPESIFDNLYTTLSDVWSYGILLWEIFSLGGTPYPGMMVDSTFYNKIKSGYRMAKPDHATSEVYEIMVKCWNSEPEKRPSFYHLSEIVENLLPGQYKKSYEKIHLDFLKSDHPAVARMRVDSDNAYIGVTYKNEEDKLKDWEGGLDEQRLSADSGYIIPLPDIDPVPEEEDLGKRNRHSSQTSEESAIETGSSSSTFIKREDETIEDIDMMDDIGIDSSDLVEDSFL
Experimental: (§1) PDGFRalpha(V561D) (N-terminal 6His-tagged, recombinant human PDGFRalpha, amino acids 550end containing the V561 D mutation) is incubated with 8 mM MOPS pH 7.0, 0.2 mM EDTA, 250 μM GGMEDIYEFMGGKKK, 10 mM MgAcetate and [gamma-33P-ATP] (specific activity approx. 500 cpm/pmol, concentration 200 μM). The reaction is initiated by the addition of the MgATP mix. After incubation for 40 minutes at room temperature, the reaction is stopped by the addition of 3% phosphoric acid solution. 10 μL of the reaction is then spotted onto a P30 filtermat and washed three times for 5 minutes in 75 mM phosphoric acid and once in methanol prior to drying and scintillation counting.

[2] = biological target: T2, c-Kit(V654A) (Homo sapiens, UniProt P10721, V654A); test: c-Kit(V654A) assay; assay type: biochemical; conditions: recombinant human c-Kit aa 544-end, 200 μM ATP, 1.4E-06 means 1.4×10^−6, read-out: Inhibition (IC50) of c-KIT (V654A)
T2 construct: amino acids 544-end containing the V654A mutation; GST (N)
T2 sequence (P10721 544-976 V654A): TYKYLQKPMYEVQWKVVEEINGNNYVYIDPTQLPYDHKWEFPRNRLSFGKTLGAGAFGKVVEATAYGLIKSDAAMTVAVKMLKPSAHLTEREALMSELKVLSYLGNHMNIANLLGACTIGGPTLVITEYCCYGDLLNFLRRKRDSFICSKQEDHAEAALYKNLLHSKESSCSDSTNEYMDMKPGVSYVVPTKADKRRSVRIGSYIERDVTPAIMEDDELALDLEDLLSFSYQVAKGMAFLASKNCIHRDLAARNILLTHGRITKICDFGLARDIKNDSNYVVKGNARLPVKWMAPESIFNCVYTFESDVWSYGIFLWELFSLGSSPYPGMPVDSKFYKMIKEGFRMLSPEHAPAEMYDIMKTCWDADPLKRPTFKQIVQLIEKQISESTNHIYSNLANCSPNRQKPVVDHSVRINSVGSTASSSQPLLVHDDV
Experimental: as §1, with “c-Kit(V654A)” for “PDGFRalpha(V561D)”, “GST-tagged,” for “6His-tagged,”, “c-Kit,” for “PDGFRalpha,”, “544-end” for “550end”, “V654A” for “V561 D”

| IC50 [1] | IC50 [2] | SMILES |
| --- | --- | --- |
| 85 nM | 44 nM | N[C@H]1CCCN(C(=O)c2ccc(-n3cc(-c4cc5cc(F)c(F)cc5[nH]c4=O)nn3)cc2)C1 [A310, 3-{1-[4-((S)-3-amino-piperidine-1-carbonyl)-phenyl]-1H-[1,2,3]triazol-4-yl}-6,7-difluoro-1H-quinolin-2-one hydrochloride] |
| 5 nM | 7 nM | CN1CCN(C(=O)c2ccc(-n3cc(-c4cc5cc(F)ccc5[nH]c4=O)nn3)cc2)CC1 [A56, 6-fluoro-3-{1-[4-(4-methyl-piperazine-1-carbonyl)-phenyl]-1H-[1,2,3]triazol-4-yl}-1H-quinolin-2-one] |
| 490 nM | 36 nM | CCN(CC)CCOC1CCN(C(=O)c2ccc(-n3cc(-c4cc5cc(F)ccc5[nH]c4=O)nn3)cc2)C1 (stereo not shown) [A203, 3-(1-{4-[3-(2-diethylamino-ethoxy)-pyrrolidine-1-carbonyl]-phenyl}-1H-[1,2,3]triazol-4-yl)-6-fluoro-1H-quinolin-2-one] |
| 16 nM | 44 nM | CN1CCN(C(=O)c2ccc(-n3cc(-c4cc5cccnc5[nH]c4=O)nn3)cc2)CC1 [A64, 3-{1-[4-(4-methyl-piperazine-1-carbonyl)-phenyl]-1H-[1,2,3]triazol-4-yl}-1H-[1,8]naphthyridin-2-one] |
| 600 nM | 96 nM | COCCOC[C@H]1CCN(C(=O)c2ccc(-n3cc(-c4cc5cc(F)c(F)cc5[nH]c4=O)nn3)cc2)C1 [A233, 6,7-difluoro-3-(1-{4-[(S)-3-(2-methoxy-ethoxymethyl)-pyrrolidine-1-carbonyl]-phenyl}-1H-[1,2,3]triazol-4-yl)-1H-quinolin-2-one] |
| 8 nM | 36 nM | COCCCN1CCN(C(=O)c2ccc(-n3cc(-c4cc5cccnc5[nH]c4=O)nn3)cc2)CC1 [A89, 3-(1-{4-[4-(3-methoxy-propyl)-piperazine-1-carbonyl]-phenyl}-1H-[1,2,3]triazol-4-yl)-1H-[1,8]naphthyridin-2-one] |
| 5.9 nM | 21 nM | CN1CCN(C(=O)c2ccc(-n3cc(-c4cc5cc(F)ccc5[nH]c4=O)nn3)cc2)CC1=O [A92, 6-fluoro-3-{1-[4-(4-methyl-3-oxo-piperazine-1-carbonyl)-phenyl]-1H-[1,2,3]triazol-4-yl}-1H-quinolin-2-one] |
| 2800 nM | 280 nM | O=C(c1ccc(-n2cc(-c3cc4ccc(C(F)(F)F)cc4[nH]c3=O)nn2)cc1)N1CCNCC1 [A142, 3-{1-[4-(piperazine-1-carbonyl)-phenyl]-1H-[1,2,3]triazol-4-yl}-7-trifluoromethyl-1H-quinolin-2-one] |
| 220 nM | 14 nM | CN1C[C@@H]2CN(C(=O)c3ccc(-n4cc(-c5cc6cc(F)ccc6[nH]c5=O)nn4)cc3)C[C@@H]2C1 [A327, 6-fluoro-3-{1-[4-((cis)-5-methyl-hexahydro-pyrrolo[3,4-c]pyrrole-2-carbonyl)-phenyl]-1H-[1,2,3]triazol-4-yl}-1H-quinolin-2-one] |
| 61 nM | 81 nM | CN1CCCN(c2ccc(-n3cc(-c4cc5cc(F)cnc5[nH]c4=O)nn3)cc2)CC1 [A155, 6-fluoro-3-{1-[4-(4-methyl-[1,4]diazepan-1-yl)-phenyl]-1H-[1,2,3]triazol-4-yl}-1H-[1,8]naphthyridin-2-one] |
| 19 nM | 34 nM | CN(C)C(=O)c1ccc(-n2cc(-c3cc4ccccc4[nH]c3=O)nn2)cc1 [A4, N,N-dimethyl-4-[4-(2-oxo-1,2-dihydro-quinolin-3-yl)-[1,2,3]triazol-1-yl]-benzamide] |
| 14 nM | 38 nM | CN1CCN(C(=O)c2ccc(-n3cc(-c4cc5cc(F)ccc5[nH]c4=O)cn3)cc2)CC1 [A296, 6-fluoro-3-{1-[4-(4-methyl-piperazine-1-carbonyl)-phenyl]-1H-pyrazol-4-yl}-1H-quinolin-2-one] |
| 26 nM | 7.5 nM | O=C(c1ccc(-n2cc(-c3cc4cc(F)ccc4[nH]c3=O)nn2)cc1)N1CCC(O)CC1 [A183, 6-fluoro-3-{1-[4-(4-hydroxy-piperidine-1-carbonyl)-phenyl]-1H-[1,2,3]triazol-4-yl}-1H-quinolin-2-one] |
| 10 nM | 15 nM | O=c1[nH]c2ccccc2cc1-c1cn(-c2ccc(OCCN3CCOCC3)cc2)nn1 [A26, 3-{1-[4-(2-morpholin-4-yl-ethoxy)-phenyl]-1H-[1,2,3]triazol-4-yl}-1H-quinolin-2-one] |
| 16 nM | 9.7 nM | CN(C(=O)[C@@H]1CCCO1)c1ccc(-n2cc(-c3cc4cc(F)ccc4[nH]c3=O)nn2)cc1 [A344, (S)-tetrahydro-furan-2-carboxylic acid {4-[4-(6-fluoro-2-oxo-1,2-dihydro-quinolin-3-yl)-[1,2,3]triazol-1-yl]-phenyl}-methyl-amide] |
| 34 nM | 23 nM | CN1CC[C@H](Oc2ccc(-n3cc(-c4cc5cc(Cl)ccc5[nH]c4=O)nn3)cc2)C1 [A368, 6-chloro-3-{1-[4-((S)-1-methyl-pyrrolidin-3-yloxy)-phenyl]-1H-[1,2,3]triazol-4-yl}-1H-quinolin-2-one] |
| 520 nM | 120 nM | O=C(c1ccc(-n2cc(-c3cc4cc(F)ccc4[nH]c3=O)nn2)cc1)N1CCNC[C@@H]1CO [A316, 6-fluoro-3-{1-[4-((R)-2-hydroxymethyl-piperazine-1-carbonyl)-phenyl]-1H-[1,2,3]triazol-4-yl}-1H-quinolin-2-one] |
| 500 nM |  | O=c1[nH]c2ccccc2cc1-c1cn(-c2ccccc2F)nn1 [A13, 3-[1-(2-fluoro-phenyl)-1H-[1,2,3]triazol-4-yl]-1H-quinolin-2-one] |
| 33 nM |  | COc1cnc2[nH]c(=O)c(-c3cn(-c4ccc(C(=O)N(C)C)cc4)nn3)cc2c1 [A16, 4-[4-(6-methoxy-2-oxo-1,2-dihydro-[1,8]naphthyridin-3-yl)-[1,2,3]triazol-1-yl]-N,N-dimethyl-benzamide] |
|  | 430 nM | O=c1[nH]c2ncccc2cc1-c1cn(-c2ccccc2)nn1 [A6, 3-(1-phenyl-1H-[1,2,3]triazol-4-yl)-1H-[1,8]naphthyridin-2-one] |
|  | 25 nM | CN1CCN(CC2CCCN2C(=O)c2ccc(-n3cc(-c4cc5cc(F)ccc5[nH]c4=O)nn3)cc2)CC1 (stereo not shown) [A287, 6-fluoro-3-(1-{4-[2-(4-methyl-piperazin-1-ylmethyl)-pyrrolidine-1-carbonyl]-phenyl}-1H-[1,2,3]triazol-4-yl)-1H-quinolin-2-one] |
| 250 nM |  | COC(=O)c1cccc(-n2cc(-c3cc4ccccc4[nH]c3=O)nn2)c1 [A23, 3-[4-(2-oxo-1,2-dihydro-quinolin-3-yl)-[1,2,3]triazol-1-yl]-benzoic acid methyl ester] |
|  | 5.1 nM | O=C(c1ccc(-n2cc(-c3cc4cc(F)ccc4[nH]c3=O)nn2)cc1)N1CCCC1c1cccnc1 (stereo not shown) [A286, 6-fluoro-3-{1-[4-(2-pyridin-3-yl-pyrrolidine-1-carbonyl)-phenyl]-1H-[1,2,3]triazol-4-yl}-1H-quinolin-2-one] |
|  | 19 nM | CS(=O)(=O)[C@H]1CCN(C(=O)c2ccc(-n3cc(-c4cc5cc(F)ccc5[nH]c4=O)nn3)cc2)C1 [A283, 6-fluoro-3-{1-[4-((S)-3-methanesulfonyl-pyrrolidine-1-carbonyl)-phenyl]-1H-[1,2,3]triazol-4-yl}-1H-quinolin-2-one] |
| 440 nM |  | O=C(c1ccc(-n2cc(-c3cc4ccccc4[nH]c3=O)cn2)cc1)N1CCNCC1 [A73, 3-{1-[4-(piperazine-1-carbonyl)-phenyl]-1H-pyrazol-4-yl}-1H-quinolin-2-one] |
|  | 22 nM | CO[C@H]1CCN(S(=O)(=O)c2ccc(-n3cc(-c4cc5cc(F)ccc5[nH]c4=O)nn3)cc2)C1 [A360, 6-fluoro-3-{1-[4-((S)-3-methoxy-pyrrolidine-1-sulfonyl)-phenyl]-1H-[1,2,3]triazol-4-yl}-1H-quinolin-2-one] |
|  | 51 nM | CN1CCC(C(=O)N(C)c2ccc(-n3cc(-c4cc5cc(F)ccc5[nH]c4=O)nn3)cc2)CC1 [A349, 1-methyl-piperidine-4-carboxylic acid {4-[4-(6-fluoro-2-oxo-1,2-dihydro-quinolin-3-yl)-[1,2,3]triazol-1-yl]-phenyl}-methyl-amide] |
|  | 13 nM | CO[C@@H]1CCN(S(=O)(=O)c2ccc(-n3cc(-c4cc5cc(Cl)ccc5[nH]c4=O)nn3)cc2)C1 [A359, 6-chloro-3-{1-[4-((R)-3-methoxy-pyrrolidine-1-sulfonyl)-phenyl]-1H-[1,2,3]triazol-4-yl}-1H-quinolin-2-one] |
|  | 19 nM | CO[C@@H]1CCN(S(=O)(=O)c2ccc(-n3cc(-c4cc5cc(F)ccc5[nH]c4=O)nn3)cc2)C1 [A358, 6-fluoro-3-{1-[4-((R)-3-methoxy-pyrrolidine-1-sulfonyl)-phenyl]-1H-[1,2,3]triazol-4-yl}-1H-quinolin-2-one] |
